# Measurements as given in ChEMBL document CHEMBL1148630, “Conformationally biased P3 amide replacements of beta-secretase inhibitors” (Bioorg Med Chem Lett, 2006).
# pIC50: −log10 of the molar value.
# Target: Beta-secretase 1 (Homo sapiens, UniProt P56817)
# Sequence (P56817 whole entry): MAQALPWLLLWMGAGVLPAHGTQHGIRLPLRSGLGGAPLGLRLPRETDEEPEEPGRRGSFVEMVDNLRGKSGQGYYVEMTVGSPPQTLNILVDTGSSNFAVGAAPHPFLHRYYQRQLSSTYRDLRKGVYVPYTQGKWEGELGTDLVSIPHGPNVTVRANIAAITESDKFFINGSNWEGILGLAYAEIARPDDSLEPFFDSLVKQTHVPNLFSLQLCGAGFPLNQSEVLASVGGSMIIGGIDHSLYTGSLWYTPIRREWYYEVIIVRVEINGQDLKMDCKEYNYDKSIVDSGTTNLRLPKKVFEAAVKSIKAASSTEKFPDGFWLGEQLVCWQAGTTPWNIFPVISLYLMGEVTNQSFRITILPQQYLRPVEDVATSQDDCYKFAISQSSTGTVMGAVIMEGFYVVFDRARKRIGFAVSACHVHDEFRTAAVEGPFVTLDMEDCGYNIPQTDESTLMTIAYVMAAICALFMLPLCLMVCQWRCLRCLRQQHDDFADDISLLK
# Description: Inhibition of BACE1 activity
row,Structure (SMILES),pIC50
1,C=C(c1ccccc1)c1cc(C(=O)N[C@@H](Cc2ccccc2)[C@H](O)CNC2CC2)cc(N(C)S(C)(=O)=O)c1,5.89
2,CC(C)C(=O)c1cc(C(=O)N[C@@H](Cc2ccccc2)[C@H](O)CNC2CC2)cc(N(C)S(C)(=O)=O)c1,6.62
3,CN(c1cc(/C=C/C2CC2)cc(C(=O)N[C@@H](Cc2ccccc2)[C@H](O)CNC2CC2)c1)S(C)(=O)=O,6.14
4,CN(c1cc(C(=O)N[C@@H](Cc2ccccc2)[C@H](O)CNC2CC2)cc(C(O)Cc2ccccc2)c1)S(C)(=O)=O (stereo partly drawn),5.26
5,CN(c1cc(C(=O)N[C@@H](Cc2ccccc2)[C@H](O)CNC2CC2)cc(C(=O)C2CCCC2)c1)S(C)(=O)=O,6.74
6,CN(c1cc(CCC2CC2)cc(C(=O)N[C@@H](Cc2ccccc2)[C@H](O)CNC2CC2)c1)S(C)(=O)=O,6.38
7,CCC(=O)c1cc(C(=O)N[C@@H](Cc2ccccc2)[C@H](O)CNC2CC2)cc(N(C)S(C)(=O)=O)c1,5.82
8,CN(c1cc(C(=O)N[C@@H](Cc2ccccc2)[C@H](O)CNC2CC2)cc(C(=O)C2CCCCC2)c1)S(C)(=O)=O,6.35
9,CNC(=O)c1cc(C(=O)N[C@@H](Cc2ccccc2)[C@H](O)CNC2CC2)cc(N(C)S(C)(=O)=O)c1,6.01
10,CN(c1cc(Cc2ccccc2)cc(C(=O)N[C@@H](Cc2ccccc2)[C@H](O)CNC2CC2)c1)S(C)(=O)=O,5.33
11,CN(c1cc(/C=C\C2CC2)cc(C(=O)N[C@@H](Cc2ccccc2)[C@H](O)CNC2CC2)c1)S(C)(=O)=O,7.46
12,CN(c1cc(C(=O)N[C@@H](Cc2ccccc2)[C@H](O)CNC2CC2)cc(C(O)c2ccccc2)c1)S(C)(=O)=O (stereo partly drawn),5.23
13,CN(c1cc(C(=O)Cc2ccccc2)cc(C(=O)N[C@@H](Cc2ccccc2)[C@H](O)CNC2CC2)c1)S(C)(=O)=O,5.85
